From patent publication EP3868760A1, “2,3,5-SUBSTITUTED PYRROLO[2,3-B]PYRIDINES AS ERBB MODULATORS USEFUL FOR TREATING CANCER” (PearlRiver Bio GmbH, priority 2020, dated 2021)

Assays:
[1] = system: EGFR Exon 20 InsNPH Ba/F3; experiment: EGFR Exon 20 InsNPH Ba/F3 CellTiter-Glo assay; assay type: cell-based; settings: Mus musculus, BaF3; 72 h incubation; read-out: EGFR Exon 20 InsNPH Ba/F3 CTG IC50
Description: (§1) The CellTiter-Glo Luminescent Cell Viability Assay (Promega) is a homogeneous method of determining the number of viable cells in culture. It is based on quantification of ATP, indicating the presence of metabolically active cells. Cells are seeded on day 1 at cell numbers that assure assay linearity and optimal signal intensity. After incubation for 24h in humidified chambers at 37°C and 5% CO2, compounds in DMSO are added at different concentrations. Cells are further incubated for 72 h at 37°C and 5% CO2. Cells treated with the compound vehicle DMSO are used as positive controls and cells treated with 10 µM Staurosporine serve as negative controls. At day 5 the CellTiter Glo Reagent is prepared according to the instructions of the kit (Promega Inc.): Reagent is mixed 1:1 with cell culture medium. Thereon, mixture and assay plates are equilibrated at room temperature for 20 min. Equal volumes of the reagent-medium-mixture is added to the volume of culture medium present in each well. The plates are mixed at ∼200 rpm for 2 minutes on an orbital shaker. The microplates are then incubated at room temperature for 10 minutes for stabilization of the luminescent signal. Following incubation the luminescence is recorded on a Victor microplate reader (Perkin Elmer) using a 200 ms integration time. The data is then analyzed with Excel using the XLFIT Plugin (dose response Fit 205) for IC50-determination. As quality control the Z'-factor is calculated from 16 positive and negative control values. Only assay results showing a Z'-factor ≥ 0.5 are used for further analysis.

HER2 INS YVMA = target: T1, HER2 INS YVMA (Homo sapiens, UniProt P04626, INS775YVMA); experiment: Her2 Exon 20 InsYVMA Lance kinase activity assay; assay type: biochemical; settings: 1 h incubation, 1,6 µM ATP
T1 construct: purchased DPF
Description: This protocol describes how the Lance Kinase Activity Assay was performed to determine IC50 values of compounds of general formula (I) against HER2 INS YVMA. The principle behind this enzymatic assay is based upon the phosphorylation of the Ulight-peptide substrate. It is detected by using a specific EU-labeled anti-phospho peptide antibody. The binding of the Eu labeled anti-phospho peptide antibody to the phosphorylated ULight labeled peptide gives rise to a FRET-signal.
Binding of an inhibitor to the kinase prevents phosphorylation of the Ulight-substrate, resulting in a loss of FRET. In table 2 is summarized the relevant information for the LANCE assay. Table 2: Reagents, stock concentrations and final assay concentrations for Her2 INS YVMA.
The compounds of general formula (I) summarized in Table 3 were serial diluted from a 10 mM DMSO stock solution 1:3 over 8 steps in a total volume of 20 µl.
For every sample, 8 µl of kinase-substrate mix was transferred into a suitable assay plate (e.g. Corning #3673). Compound was added via pintool transfer (10nl/well) using a Biomek FX robot (BeckmanCoulter). Reaction was started by addition of 2µl ATP working solution and mixed using variomag teleshaker (Thermo Fischer Scientific). After 1 h incubation at room temperature the reaction was stopped with 10µl detection mix containing the Eu-labeled phosphospecific antibody and 10mM EDTA. After a second incubation period of 1 h at room temperature the FRET signal was measured at 340 nm excitation, 665 nm and 615 nm emission (for the ULight-substrate and Eu-AB, respectively) with an Envision spectrophotometer (Perkin Elmer, Waltham, MA, USA) with 50 µs delay and 300 µs integration time. IC50 values were determined from the sigmoidal dose response curves with the software Quattro Workflow (Quattro GmbH, Munich, Germany).

EGFR vIII Ba/F3 = EGFR vIII Ba/F3 CellTiter-Glo assay; assay type: cell-based; settings: Mus musculus, BaF3; 72 h incubation; read-out: EGFR vIII Ba/F3 CTG IC50
Description: as §1

EGFR wt = EGFR wt (Homo sapiens, UniProt P00533); experiment: EGFR wt Lance assay; assay type: biochemical
EGFR T790M L858R = EGFR T790M L858R (Homo sapiens, UniProt P00533, L858R/T790M); experiment: EGFR T790ML858R Lance assay; assay type: biochemical
[2] = system: Her2 Exon 20 InsYVMA Ba/F3; experiment: Her2 Exon 20 InsYVMA Ba/F3 CellTiter-Glo assay; assay type: cell-based; settings: Mus musculus, BaF3; 72 h incubation; read-out: Her2 Exon 20 InsYVMA Ba/F3 CTG IC50
Description: as §1

Cuto-17 = Cuto-17 CellTiter-Glo assay; assay type: cell-based; settings: CUTO17; 72 h incubation; read-out: Cuto-17 CTG IC50
Description: as §1

H1975 = H1975 CellTiter-Glo assay; assay type: cell-based; settings: Homo sapiens, NCI-H1975; 72 h incubation; read-out: H1975 CTG IC50
Description: as §1

A431 = A431 CellTiter-Glo assay; assay type: cell-based; settings: Homo sapiens, A-431; 72 h incubation; read-out: A431 CTG IC50
Description: as §1

EGFR (del746-750) = EGFR (del746-750) (Homo sapiens, UniProt P00533, DEL746-750); experiment: EGFR (del746-750) Lance assay; assay type: biochemical
EGFR L858R = EGFR L858R (Homo sapiens, UniProt P00533, L858R); experiment: EGFR L858R Lance assay; assay type: biochemical
EGFR L858R Ba/F3 = EGFR L858R Ba/F3 CellTiter-Glo assay; assay type: cell-based; settings: Mus musculus, BaF3; 72 h incubation; read-out: EGFR L858R Ba/F3 CTG IC50
Description: as §1, with “The microplates are then incubated at room temperature for 10 minutes for stabilization of the luminescent signal.” left out, “Only assay results showing a Z'-factor ≥ 0.5 are used for further analysis.” left out

EGFR L858R T790M Ba/F3 = experiment: EGFR L858RT790M Ba/F3 CellTiter-Glo assay; assay type: cell-based; settings: Mus musculus, BaF3; 72 h incubation; read-out: EGFR L858R T790M Ba/F3 CTG IC50
Description: as §1, with “The microplates are then incubated at room temperature for 10 minutes for stabilization of the luminescent signal.” left out, “Only assay results showing a Z'-factor ≥ 0.5 are used for further analysis.” left out

EGFR wt, sequence (P00533 25-1210): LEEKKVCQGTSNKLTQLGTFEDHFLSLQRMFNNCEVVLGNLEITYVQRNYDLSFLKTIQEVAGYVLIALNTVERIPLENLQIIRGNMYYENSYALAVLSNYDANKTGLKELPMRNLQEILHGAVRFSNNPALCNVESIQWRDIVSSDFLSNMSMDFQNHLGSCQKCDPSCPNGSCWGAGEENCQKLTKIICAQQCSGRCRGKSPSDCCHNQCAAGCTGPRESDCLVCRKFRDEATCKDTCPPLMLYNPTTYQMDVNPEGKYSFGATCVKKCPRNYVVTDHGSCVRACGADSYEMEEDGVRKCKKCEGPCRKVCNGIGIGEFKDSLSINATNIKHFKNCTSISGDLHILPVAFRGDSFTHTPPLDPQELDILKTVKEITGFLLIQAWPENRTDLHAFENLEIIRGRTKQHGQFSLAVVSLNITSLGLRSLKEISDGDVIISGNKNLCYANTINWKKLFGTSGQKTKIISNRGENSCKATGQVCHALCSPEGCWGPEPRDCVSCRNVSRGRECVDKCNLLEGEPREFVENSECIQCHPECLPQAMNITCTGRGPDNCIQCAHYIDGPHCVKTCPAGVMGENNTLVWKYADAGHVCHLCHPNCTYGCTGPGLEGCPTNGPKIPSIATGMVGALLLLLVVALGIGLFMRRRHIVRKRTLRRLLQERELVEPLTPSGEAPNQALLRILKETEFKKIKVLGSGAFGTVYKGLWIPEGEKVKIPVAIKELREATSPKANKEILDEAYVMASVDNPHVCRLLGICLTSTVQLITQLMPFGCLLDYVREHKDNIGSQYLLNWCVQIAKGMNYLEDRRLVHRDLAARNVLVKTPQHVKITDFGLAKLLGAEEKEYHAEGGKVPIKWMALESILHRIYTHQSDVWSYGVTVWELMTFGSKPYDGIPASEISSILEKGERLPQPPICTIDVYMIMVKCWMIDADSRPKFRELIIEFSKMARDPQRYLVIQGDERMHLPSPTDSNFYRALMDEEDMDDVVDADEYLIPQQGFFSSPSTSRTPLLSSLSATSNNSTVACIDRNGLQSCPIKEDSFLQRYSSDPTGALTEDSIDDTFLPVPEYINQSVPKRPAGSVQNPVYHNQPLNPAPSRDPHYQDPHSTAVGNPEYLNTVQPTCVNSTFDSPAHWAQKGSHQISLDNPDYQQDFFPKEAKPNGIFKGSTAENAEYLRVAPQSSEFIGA
EGFR T790M L858R, sequence (P00533 25-1210 T790M/L858R): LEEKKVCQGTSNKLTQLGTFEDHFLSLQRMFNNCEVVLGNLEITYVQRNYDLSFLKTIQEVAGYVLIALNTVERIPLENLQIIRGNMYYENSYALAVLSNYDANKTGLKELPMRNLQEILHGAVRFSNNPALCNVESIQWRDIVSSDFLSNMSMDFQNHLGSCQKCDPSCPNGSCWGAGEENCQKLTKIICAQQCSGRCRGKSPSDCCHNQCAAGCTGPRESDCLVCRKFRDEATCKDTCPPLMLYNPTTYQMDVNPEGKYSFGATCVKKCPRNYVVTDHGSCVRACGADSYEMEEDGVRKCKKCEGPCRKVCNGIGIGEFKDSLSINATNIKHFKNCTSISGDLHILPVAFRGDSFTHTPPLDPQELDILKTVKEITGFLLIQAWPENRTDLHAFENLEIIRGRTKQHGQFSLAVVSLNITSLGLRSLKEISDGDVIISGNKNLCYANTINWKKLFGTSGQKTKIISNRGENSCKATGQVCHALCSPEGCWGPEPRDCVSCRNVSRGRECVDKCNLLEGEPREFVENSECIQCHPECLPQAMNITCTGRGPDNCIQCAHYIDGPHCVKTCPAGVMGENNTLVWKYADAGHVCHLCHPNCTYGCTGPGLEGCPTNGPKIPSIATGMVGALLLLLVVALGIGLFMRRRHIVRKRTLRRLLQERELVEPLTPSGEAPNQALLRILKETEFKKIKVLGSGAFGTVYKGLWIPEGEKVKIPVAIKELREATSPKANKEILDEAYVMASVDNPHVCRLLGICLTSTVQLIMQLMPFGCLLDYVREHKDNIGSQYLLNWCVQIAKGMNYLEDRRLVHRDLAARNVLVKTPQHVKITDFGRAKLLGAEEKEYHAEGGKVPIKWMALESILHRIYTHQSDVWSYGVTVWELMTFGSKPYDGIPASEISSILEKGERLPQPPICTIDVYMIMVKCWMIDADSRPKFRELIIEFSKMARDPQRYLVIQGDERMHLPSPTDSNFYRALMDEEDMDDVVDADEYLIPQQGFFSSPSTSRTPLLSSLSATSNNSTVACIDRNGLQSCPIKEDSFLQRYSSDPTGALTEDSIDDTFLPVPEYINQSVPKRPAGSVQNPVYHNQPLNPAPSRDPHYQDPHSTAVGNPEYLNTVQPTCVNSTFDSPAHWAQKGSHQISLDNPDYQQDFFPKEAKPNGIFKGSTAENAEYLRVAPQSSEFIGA
T1 sequence (P04626 with tags, fused parts or gaps INS775YVMA): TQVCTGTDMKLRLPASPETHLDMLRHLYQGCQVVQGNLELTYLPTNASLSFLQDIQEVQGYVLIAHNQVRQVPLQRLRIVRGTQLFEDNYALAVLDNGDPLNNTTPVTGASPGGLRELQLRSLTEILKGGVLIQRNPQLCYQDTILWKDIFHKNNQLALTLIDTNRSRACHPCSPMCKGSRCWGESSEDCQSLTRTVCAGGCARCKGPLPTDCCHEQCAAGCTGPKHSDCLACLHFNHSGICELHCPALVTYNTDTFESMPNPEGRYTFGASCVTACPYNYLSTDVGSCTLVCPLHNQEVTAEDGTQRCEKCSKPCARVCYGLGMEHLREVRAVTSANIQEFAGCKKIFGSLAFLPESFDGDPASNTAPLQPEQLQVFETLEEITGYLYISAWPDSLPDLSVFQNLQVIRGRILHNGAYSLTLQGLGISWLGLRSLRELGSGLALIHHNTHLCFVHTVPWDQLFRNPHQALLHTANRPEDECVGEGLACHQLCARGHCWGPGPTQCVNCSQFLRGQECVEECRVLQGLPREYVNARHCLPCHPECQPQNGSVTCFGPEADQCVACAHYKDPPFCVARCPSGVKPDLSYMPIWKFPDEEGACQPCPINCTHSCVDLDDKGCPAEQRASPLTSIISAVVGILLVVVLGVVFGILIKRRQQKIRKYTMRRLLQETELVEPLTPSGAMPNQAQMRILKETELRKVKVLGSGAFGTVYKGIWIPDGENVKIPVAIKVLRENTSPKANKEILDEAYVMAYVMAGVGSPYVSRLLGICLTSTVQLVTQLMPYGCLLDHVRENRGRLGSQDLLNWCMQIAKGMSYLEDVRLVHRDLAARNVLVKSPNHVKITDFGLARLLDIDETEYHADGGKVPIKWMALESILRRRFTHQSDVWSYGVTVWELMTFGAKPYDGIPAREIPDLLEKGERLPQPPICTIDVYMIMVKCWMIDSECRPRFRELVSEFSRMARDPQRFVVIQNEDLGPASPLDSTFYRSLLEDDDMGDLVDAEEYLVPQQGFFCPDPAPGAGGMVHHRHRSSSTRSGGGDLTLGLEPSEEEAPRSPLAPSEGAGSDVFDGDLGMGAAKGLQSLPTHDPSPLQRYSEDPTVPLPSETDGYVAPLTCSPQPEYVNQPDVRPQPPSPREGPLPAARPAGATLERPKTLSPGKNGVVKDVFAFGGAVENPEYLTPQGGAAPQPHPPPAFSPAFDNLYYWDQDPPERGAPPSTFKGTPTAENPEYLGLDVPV
EGFR (del746-750), sequence (P00533 with tags, fused parts or gaps DEL746-750): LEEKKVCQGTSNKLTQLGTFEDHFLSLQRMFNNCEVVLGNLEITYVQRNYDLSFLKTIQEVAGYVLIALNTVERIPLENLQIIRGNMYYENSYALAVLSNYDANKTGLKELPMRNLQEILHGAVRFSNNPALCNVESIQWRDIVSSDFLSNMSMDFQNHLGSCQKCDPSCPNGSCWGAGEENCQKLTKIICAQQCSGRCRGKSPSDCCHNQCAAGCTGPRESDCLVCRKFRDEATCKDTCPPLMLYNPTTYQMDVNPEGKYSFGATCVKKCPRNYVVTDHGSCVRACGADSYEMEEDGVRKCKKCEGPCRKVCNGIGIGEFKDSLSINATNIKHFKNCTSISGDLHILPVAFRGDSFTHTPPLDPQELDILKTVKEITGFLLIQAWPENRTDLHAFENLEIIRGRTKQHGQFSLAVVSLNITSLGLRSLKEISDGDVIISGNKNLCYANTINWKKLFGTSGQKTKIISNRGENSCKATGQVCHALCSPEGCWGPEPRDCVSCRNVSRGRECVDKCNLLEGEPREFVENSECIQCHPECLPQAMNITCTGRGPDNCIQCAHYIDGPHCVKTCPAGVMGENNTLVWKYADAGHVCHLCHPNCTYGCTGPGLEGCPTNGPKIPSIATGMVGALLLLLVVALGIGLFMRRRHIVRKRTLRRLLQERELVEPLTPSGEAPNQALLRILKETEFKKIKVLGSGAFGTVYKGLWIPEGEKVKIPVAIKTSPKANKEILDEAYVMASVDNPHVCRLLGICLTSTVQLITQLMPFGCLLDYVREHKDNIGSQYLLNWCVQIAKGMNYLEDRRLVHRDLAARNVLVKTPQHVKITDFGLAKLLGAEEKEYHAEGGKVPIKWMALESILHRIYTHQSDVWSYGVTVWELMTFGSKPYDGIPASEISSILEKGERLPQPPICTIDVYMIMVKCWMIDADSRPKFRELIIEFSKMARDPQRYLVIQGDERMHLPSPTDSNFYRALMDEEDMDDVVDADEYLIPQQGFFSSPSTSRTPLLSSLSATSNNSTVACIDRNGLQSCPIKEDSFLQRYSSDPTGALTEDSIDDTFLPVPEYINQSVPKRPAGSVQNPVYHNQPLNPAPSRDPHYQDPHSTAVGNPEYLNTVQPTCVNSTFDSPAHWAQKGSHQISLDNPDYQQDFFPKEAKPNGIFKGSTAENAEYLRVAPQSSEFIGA

IC50 [1]	IC50 (HER2 INS YVMA)	IC50 (EGFR vIII Ba/F3)	IC50 (EGFR wt)	IC50 (EGFR T790M L858R)	IC50 [2]	IC50 (H1975)	IC50 (A431)	IC50 (EGFR (del746-750))	IC50 (EGFR L858R)	IC50 (EGFR L858R Ba/F3)	IC50 (EGFR L858R T790M Ba/F3)	Compound	IC50 (Cuto-17)
≤ 0.05 µM	≤ 0.05 µM	≤ 0.05 µM	≤ 0.05 µM	≤ 0.05 µM	0.1 to 0.5 µM	0.1 to 0.5 µM	1 to 10 µM	–	–	–	–	C=CC(=O)Nc1cc(-c2c(-c3ccc(N4CCN(C)CC4)cc3)[nH]c3ncc(-c4cnn(C)c4)cc23)ccc1C [Example 1, N-(2-methyl-5-(5-(1-methyl-1H-pyrazol-4-yl)-2-(4-(4-methylpiperazin-1-yl)phenyl)-1H-pyrrolo[2,3-b]pyridin-3-yl)phenyl)acrylamide]	0.1 to 0.5 µM
0.05 to 0.1 µM	≤ 0.05 µM	≤ 0.05 µM	≤ 0.05 µM	≤ 0.05 µM	0.1 to 0.5 µM	0.1 to 0.5 µM	1 to 10 µM	–	–	–	–	C=CC(=O)Nc1cc(-c2c(-c3ccc(N4CCN(C)CC4)cc3)[nH]c3ncc(-c4ccnn4C)cc23)ccc1C [Example 2, N-(2-methyl-5-(5-(1-methyl-1H-pyrazol-5-yl)-2-(4-(4-methylpiperazin-1-yl)phenyl)-1H-pyrrolo[2,3-b]pyridin-3-yl)phenyl)acrylamide]	0.1 to 0.5 µM
≤ 0.05 µM	≤ 0.05 µM	≤ 0.05 µM	≤ 0.05 µM	≤ 0.05 µM	≤ 0.05 µM	0.05 to 0.1 µM	0.5 to 1 µM	–	–	–	–	C=CC(=O)Nc1cc(-c2c(-c3ccc(N4CCN(C)CC4)cc3)[nH]c3ncc(-c4cnn(C)c4C)cc23)ccc1C [Example 3, N-(5-(5-(1,5-dimethyl-1H-pyrazol-4-yl)-2-(4-(4-methylpiperazin-1-yl)phenyl)-1H-pyrrolo[2,3-b]pyridin-3-yl)-2-methylphenyl)acrylamide]	≤ 0.05 µM
≤ 0.05 µM	≤ 0.05 µM	≤ 0.05 µM	≤ 0.05 µM	≤ 0.05 µM	0.05 to 0.1 µM	0.1 to 0.5 µM	0.5 to 1 µM	–	–	–	–	C=CC(=O)Nc1cc(-c2c(-c3ccc(N4CCN(C)CC4)cc3)[nH]c3ncc(-c4cnn(CC)c4)cc23)ccc1C [Example 4, N-(5-(5-(1-ethyl-1H-pyrazol-4-yl)-2-(4-(4-methylpiperazin-1-yl)phenyl)-1 H-pyrrolo[2,3-b]pyridin-3-yl)-2-methylphenyl)acrylamide]	0.1 to 0.5 µM
≤ 0.05 µM	≤ 0.05 µM	0.05 to 0.1 µM	≤ 0.05 µM	≤ 0.05 µM	0.1 to 0.5 µM	0.5 to 1 µM	1 to 10 µM	≤ 0.05 µM	≤ 0.05 µM	–	–	C=CC(=O)Nc1cc(-c2c(-c3ccc(N4CCN(C)CC4)cc3)[nH]c3ncc(-c4cn(C)nc4C)cc23)ccc1C [Example 5, N-(5-(5-(1,3-dimethyl-1H-pyrazol-4-yl)-2-(4-(4-methylpiperazin-1-yl)phenyl)-1H-pyrrolo[2,3-b]pyridin-3-yl)-2-methylphenyl)acrylamide]	0.1 to 0.5 µM
≤ 0.05 µM	≤ 0.05 µM	≤ 0.05 µM	≤ 0.05 µM	≤ 0.05 µM	≤ 0.05 µM	0.1 to 0.5 µM	1 to 10 µM	≤ 0.05 µM	≤ 0.05 µM	≤ 0.05 µM	≤ 0.05 µM	C=CC(=O)Nc1cc(-c2c(-c3ccc(N4CCN(C)CC4)cc3)[nH]c3ncc(-c4cnn(C5CC5)c4)cc23)ccc1C [Example 6, N-(5-(5-(1-cyclopropyl-1H-pyrazol-4-yl)-2-(4-(4-methylpiperazin-1-yl)phenyl)-1H-pyrrolo[2,3-b]pyridin-3-yl)-2-methylphenyl)acrylamide]	0.1 to 0.5 µM
≤ 0.05 µM	≤ 0.05 µM	≤ 0.05 µM	≤ 0.05 µM	≤ 0.05 µM	0.1 to 0.5 µM	0.1 to 0.5 µM	1 to 10 µM	–	–	–	–	C=CC(=O)Nc1cc(-c2c(-c3ccc(N4CCN(C)CC4)cc3)[nH]c3ncc(-c4cnn(CCOC)c4)cc23)ccc1C [Example 7, N-(5-(5-(1-(2-methoxyethyl)-1H-pyrazol-4-yl)-2-(4-(4-methylpiperazin-1-yl)phenyl)-1H-pyrrolo[2,3-b]pyridin-3-yl)-2-methylphenyl)acrylamide]	0.1 to 0.5 µM
